Data: PMC9090282, “Characterization of Calcium-Dependent Protein Kinase 2A, a Potential Drug Target Against Cryptosporidiosis” (Frontiers in Microbiology, 2022)

Tests used:
Cryptosporidium parvum [1] = experiment: Anti-cryptosporidial activity on C. parvum development in HCT-8 cultures by qRT-PCR (compound present during invasion and growth, 44 h); format: cell-based
Procedure: (§1) Using molecular docking of the simulated CpCDPK2A structure, small molecules were selected from the ChemDiv database. The binding energy values of ligands to proteins were calculated based on ligand efficiency, Coulomb energy, Van der waals energy, and H-bond energy. Candidate small molecules were purchased from TopScience Ltd. (Shanghai, China) and screened for activities against C. parvum development in vitro using qRT-PCR ([Zhang et al., 2012]). Briefly, HCT-8 monolayers (2 × 10^4 cells/well) grown in 96 well plates were inoculated with hypochlorite-treated oocysts (2 × 10^4 oocysts/well) containing dilutions of compounds (10 μM) or DMSO (1%). The parasites were allowed to invade host cells for 3 h, and uninvaded parasites were washed off with the medium change. […] The levels of 18S rRNA transcripts of C. parvum and HCT-8 cells were measured by using the HiScript II One Step qRT-PCR SYBR Green kit (Vazyme Biotech, Nanjing, China) as described ([Zhang et al., 2012]). The parasite loads in cultures were calculated using the ΔΔCT method ([Cai et al., 2005]). […] The cytotoxicity of compounds was evaluated by the Cell Titer 96 Aqueous One Solution Cell Proliferation Assay (Promega) as described ([Pobsuk et al., 2019]). The half-maximal toxic concentration (TC50) values on host cells were calculated using Graphpad Prism 7 (Graphpad software, San Diego, United States).

Cryptosporidium parvum [2] = experiment: Invasion experiment: HCT-8 cells infected with oocysts and cultured with compound for 3 h, qRT-PCR; format: cell-based; settings: 0.01 to 20 μM, compound only during invasion phase (3 h)
Procedure: (§2) Candidate anti-cryptosporidial compounds were further examined for their effects on C. parvum invasion or development assays. In invasion experiments, HCT-8 cells plated on coverslips were infected with bleached oocysts and cultured with active compounds for 3 h at 37°C. In growth experiments, monolayers were infected with bleached oocysts, washed twice with PBS at 3 h post-infection, and returned to culture in fresh HCT-8 medium with active compounds for 41 h. RNA was collected from each well at specified time point to assess the anti-cryptosporidial activities of these compounds using qRT-PCR method described above. The addition of 140 μM paromomycin was used as a positive control. Parasite enumeration by immunofluorescence microscopy was used to verify the efficacy of active compound K292-0423 against C. parvum development in vitro.

rCpCDPK2A = rCpCDPK2A (Cryptosporidium parvum, UniProt Q5CTY5); experiment: NADH-coupled ATPase assay of rCpCDPK2A enzyme activity; format: biochemical
Chain of rCpCDPK2A (Q5CTY5 entry or part of it): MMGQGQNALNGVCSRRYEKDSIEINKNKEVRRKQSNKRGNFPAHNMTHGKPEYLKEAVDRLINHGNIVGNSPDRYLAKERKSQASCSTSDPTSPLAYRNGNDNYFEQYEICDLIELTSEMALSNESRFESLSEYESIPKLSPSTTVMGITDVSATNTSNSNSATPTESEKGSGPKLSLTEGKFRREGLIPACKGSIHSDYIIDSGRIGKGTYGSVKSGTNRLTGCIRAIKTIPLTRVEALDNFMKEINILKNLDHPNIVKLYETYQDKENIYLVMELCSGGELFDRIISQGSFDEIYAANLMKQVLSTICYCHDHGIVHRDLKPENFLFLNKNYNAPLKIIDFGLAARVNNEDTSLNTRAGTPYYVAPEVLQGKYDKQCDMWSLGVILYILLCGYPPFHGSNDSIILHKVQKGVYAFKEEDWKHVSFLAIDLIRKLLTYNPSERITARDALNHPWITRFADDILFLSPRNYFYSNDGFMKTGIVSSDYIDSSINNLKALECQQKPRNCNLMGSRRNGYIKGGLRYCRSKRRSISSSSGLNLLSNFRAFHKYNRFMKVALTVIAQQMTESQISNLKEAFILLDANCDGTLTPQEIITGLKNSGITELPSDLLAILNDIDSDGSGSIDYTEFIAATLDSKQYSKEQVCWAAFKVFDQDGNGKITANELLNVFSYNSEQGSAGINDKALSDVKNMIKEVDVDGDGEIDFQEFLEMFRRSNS
Procedure: The enzymatic activity of rCpCDPK2A was measured using the […] NADH-coupled ATPase assay as described previously ([Rutaganira et al., 2017]). The kinase reaction was conducted at 30°C for 40 min in 100 mM HEPES, pH 8.0, 150 mM NaCl, 10 mM MgCl2, 1 mM CaCl2, 50 mM KCl, 10 mM DTT, 2 μg/ml BSA, and 0.01% Tween 20. The typical assay of 100 μl reactions contained 50 μM Syntide-2, 50 μM ATP, 150 μM NADH, 300 μM phosphoenolpyruvate (PEP), and a mixture of pyruvate kinase (4 units/ml) and lactate dehydrogenase (6 units/ml; Sigma). The reaction was initiated with the addition of 100 nM rCpCDPK2A. A recombinant insulinase-like protease of C. parvum, INS-16, was used as the negative control. To assess the inhibitory effect on enzymatic activities of rCpCDPK2A, six active compounds were added to the reaction at 10 μM in duplicate. Compounds with significant inhibition rates were selected to determine the half-maximal inhibition concentration (IC50) using final concentrations of 1 μM to 20 μM. The IC50 values were calculated using Graphpad Prism 7.

Cryptosporidium parvum [3] = experiment: Parasite enumeration by immunofluorescence microscopy in treated HCT-8 cultures; format: cell-based; settings: 10 μM; positive control paromomycin 140 μM
Procedure: as §2

HCT-8 cells = experiment: Cytotoxicity, Cell Titer 96 Aqueous One Solution Cell Proliferation Assay; format: cell-based, human
Procedure: as §1

Cryptosporidium parvum [4] = experiment: Growth experiment: compound added at 3 h post-infection for 41 h, qRT-PCR; format: cell-based; settings: read-out: EC50 on parasite loads, compound added after invasion
Procedure: as §2

## O=C(CSc1nc2ccsc2c(=O)n1-c1ccc(Cl)cc1)NCc1ccco1 [K292-0423]
Cryptosporidium parvum [1]; 10 μM, read-out: Inhibition of parasite growth in primary screening
  inhibition at 10 µM: > 60%
Cryptosporidium parvum [1]; dilutions 10 nM to 20 μM, read-out: EC50 (half-maximal effective concentration) on C. parvum growth
  EC50: 1.13 µM
Cryptosporidium parvum [2]
  Inhibition rates of invasion of HCT-8 cells by C. parvum: −24.27 to 37.66%
rCpCDPK2A; 10 μM compound, read-out: Inhibition rate of rCpCDPK2A activity
  inhibition at 10 µM: 73.1%
rCpCDPK2A; concentrations 1 μM to 20 μM, read-out: IC50 on CpCDPK2A enzyme
  IC50: 8.42 µM
Cryptosporidium parvum [3]
  Inhibitory effect by direct enumeration of parasites: inhibitory effects similar to that by the positive control paromomycin
HCT-8 cells
  TC50 (half-maximal toxic concentration): >75 µM
Cryptosporidium parvum [4]
  EC50: 3.16 µM
